From patent US20090196878A1, “Intestinal epithelial glucose sensor” (priority 2004, published 2009)

Legend:
SGLT1 expression [1] = test: Dietary trial, SGLT1 expression in α-gustducin knock-out mice; assay type: in vivo, mouse; conditions: α-gustducin KO mice, low-carbohydrate + sucralose diet, 2 weeks
Procedure: (§1) Male CD-1 and C57BL/6 mice, six weeks old, from Charles River Laboratories were used. The α-gustducin knock out mouse was described by Wong et al. (1996); the T1R3 knock out mouse was described by Damak et al. 2003).
(§2) High and low carbohydrate diets were resp. TestDiet® 5810 and TestDiet® 5787-9. For the sucralose test, the low carbohydrate diet was supplemented with sucralose (1,6-dichloro-1,6-dideoxy-beta-D-fructofuranosyl-4-chloro-4-deoxy-alpha-galactopyranoside) at 2 mM.
(§3) Animals were killed by concussion followed by cervical dislocation. The entire small intestine was removed and flushed with ice-cold 0.9% NaCl, opened longitudinally, rinsed in saline and mucous removed by blotting. The small intestine was then divided into proximal, mid and distal sections and the mucosa removed by scraping. Mucosal scrapings were frozen immediately in liquid nitrogen and stored at −80° C. until use. […]
(§4) Second, groups of wildtype and T1R3 and α-gustducin KO mice were placed on each of three iso-caloric diets a) low carbohydrate, b) high carbohydrate, and c) low carbohydrate+artificial sweetener (sucralose), for two weeks. After this time the mice were killed and the small intestines were removed, divided into proximal, mid and distal regions, and SGLT1 expression, at protein and mRNA levels, were measured in each.

SGLT1 expression [2] = test: Dietary trial, SGLT1 protein by western blot of luminal membrane vesicles in wild-type mice; assay type: in vivo, mouse; conditions: low carbohydrate + sucralose diet, 2 weeks
Procedure: as §1, §2, §3, §4

SGLT1 expression [3] = test: Dietary trial, SGLT1 expression in T1R3 knock-out mice; assay type: in vivo, mouse; conditions: T1R3 KO mice, low-carbohydrate + sucralose diet, 2 weeks
Procedure: as §1, §2, §3, §4

SGLT1 expression [4] = test: Dietary trial, SGLT1 mRNA by real-time PCR in wild-type mice; assay type: in vivo, mouse; conditions: proximal and mid intestinal regions, low carbohydrate diet plus sucralose 2 mM, 2 weeks, qPCR
Procedure: as §1, §2, §3, §4

[5] = reported, Roberts et al. 2000; cited from earlier work

## OC[C@H]1O[C@H](O[C@]2(CCl)O[C@H](CCl)[C@@H](O)[C@@H]2O)[C@H](O)[C@@H](O)[C@H]1Cl [sucralose, 1,6-dichloro-1,6-dideoxy-beta-D-fructofuranosyl-4-chloro-4-deoxy-alpha-galactopyranoside]
SGLT1 expression [1]
  SGLT1 mRNA: no increase
  SGLT1 protein: no increase
SGLT1 expression [2]
  SGLT1 protein expression: increased
SGLT1 expression [3]
  SGLT1 mRNA: no increase
  SGLT1 protein: no increase
SGLT1 expression [4]
  increase in SGLT1 mRNA: 30-70%
[5]
  hydrolysis, transport and metabolism within the mammalian small intestine: non-hydrolysed, non-transported and non-metabolised
